Experiments:
[1] = target: T1, 2-5A-dependent ribonuclease (Homo sapiens) (UniProt Q05823); test: Relative ability of compound to activate Ribonuclease L to cleave poly(U)p[32P]Cp, compared to that of 2-5A standard (Crel=1)
T1 sequence (whole entry): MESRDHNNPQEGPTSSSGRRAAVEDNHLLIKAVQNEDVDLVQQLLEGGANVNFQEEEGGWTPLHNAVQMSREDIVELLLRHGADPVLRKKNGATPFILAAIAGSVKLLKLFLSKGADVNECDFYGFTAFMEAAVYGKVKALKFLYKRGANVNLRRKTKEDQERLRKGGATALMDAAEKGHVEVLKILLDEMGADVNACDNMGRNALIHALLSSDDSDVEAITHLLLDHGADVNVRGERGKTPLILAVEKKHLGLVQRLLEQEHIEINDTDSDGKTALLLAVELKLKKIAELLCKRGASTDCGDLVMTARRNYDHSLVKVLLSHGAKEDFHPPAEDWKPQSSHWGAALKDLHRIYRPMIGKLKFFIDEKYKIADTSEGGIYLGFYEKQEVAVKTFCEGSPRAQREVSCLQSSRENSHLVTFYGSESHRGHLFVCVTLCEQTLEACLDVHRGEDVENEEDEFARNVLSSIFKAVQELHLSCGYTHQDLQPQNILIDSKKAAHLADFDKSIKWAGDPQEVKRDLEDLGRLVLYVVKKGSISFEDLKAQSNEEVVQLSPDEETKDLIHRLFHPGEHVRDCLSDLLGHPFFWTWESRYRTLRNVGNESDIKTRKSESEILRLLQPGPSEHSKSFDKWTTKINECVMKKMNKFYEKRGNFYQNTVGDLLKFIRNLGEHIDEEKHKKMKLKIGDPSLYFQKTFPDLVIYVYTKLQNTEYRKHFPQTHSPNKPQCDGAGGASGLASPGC

[2] = target: T1, 2-5A-dependent ribonuclease (Homo sapiens); test: Relative binding affinity of compound to human recombinant Ribonuclease L, compared to that of 2-5A standard (Crel=1)
[3] = target: T1, 2-5A-dependent ribonuclease (Homo sapiens); test: Relative ability of compound to activate Ribonuclease L to cleave poly(U)p[32P]Cp, compared to that of 2-5A standard (Crel=1); No cleavage detected
[4] = target: T1, 2-5A-dependent ribonuclease (Homo sapiens); test: Relative binding affinity of compound to human recombinant Ribonuclease L, compared to that of 2-5A standard (Crel=1); No binding detected

Row | Structure (SMILES) | Crel [1] | Crel [2] | Crel [3] | Crel [4]
1 | Nc1ncnc2c1ncn2[C@@H]1O[C@H](COP(=O)(O)O[C@@H]2[C@H](O)[C@@H](COP(=O)(O)O[C@@H]3[C@H](O)[C@@H](COP(=O)(O)O)O[C@H]3n3cnc4c(N)ncnc43)O[C@H]2n2cnc3c(N)ncnc32)[C@@H](O)[C@H]1O | 1 | 1 | – | –
2 | CO[C@H]1[C@@H](OP(=O)(O)OC[C@H]2O[C@@H](n3cnc4c(N)ncnc43)[C@H](OP(=O)(O)OC[C@@H]3CN(CCOCCOCC(=O)NCCOCCOCC(=O)NCCN(CC(=O)NCCN(CC(=O)NCCN(CC(=O)NCCN(CC(N)=O)C(=O)Cn4cc(C)c(=O)[nH]c4=O)C(=O)Cn4cc(C)c(=O)[nH]c4=O)C(=O)Cn4cc(C)c(=O)[nH]c4=O)C(=O)Cn4cc(C)c(=O)[nH]c4=O)C[C@H](n4cnc5c(N)ncnc54)O3)[C@@H]2O)[C@H](n2cnc3c(N)ncnc32)O[C@@H]1COP(=O)(O)O | 47.6 | 0.7 | – | –
3 | Cc1cn(CC(=O)N(CCNC(=O)CN(CCNC(=O)CN(CCNC(=O)CN(CCNC(=O)COCCOCCNC(=O)COCCOCCN2CC(COP(=O)(O)O)OC(n3cnc4c(N)ncnc43)C2)C(=O)Cn2cc(C)c(=O)[nH]c2=O)C(=O)Cn2cc(C)c(=O)[nH]c2=O)C(=O)Cn2cc(C)c(=O)[nH]c2=O)CC(N)=O)c(=O)[nH]c1=O (stereo not given) | – | – | No cleavage | No binding
4 | Cc1cn(CC(=O)N(CCNC(=O)CN(CCNC(=O)CN(CCNC(=O)CN(CCNC(=O)COCCOCCNC(=O)COCCOCCN2C[C@@H](COP(=O)(O)O[C@@H]3[C@H](O)[C@@H](COP(=O)(O)O)O[C@H]3n3cnc4c(N)ncnc43)O[C@@H](n3cnc4c(N)ncnc43)C2)C(=O)Cn2cc(C)c(=O)[nH]c2=O)C(=O)Cn2cc(C)c(=O)[nH]c2=O)C(=O)Cn2cc(C)c(=O)[nH]c2=O)CC(N)=O)c(=O)[nH]c1=O | – | – | No cleavage | No binding
5 | CO[C@H]1[C@@H](OP(=O)(O)OC[C@H]2O[C@@H](n3cnc4c(N)ncnc43)[C@H](OP(=O)(O)OC[C@H]3O[C@@H](n4cnc5c(N)ncnc54)[C@H](OP(=O)(O)OC[C@H]4O[C@@H](n5cnc6c(N)ncnc65)[C@H](OP(=O)(O)O[C@@H]5CN(CCOCCOCC(=O)NCCOCCOCC(=O)NCCN(CC(=O)NCCN(CC(=O)NCCN(CC(=O)NCCN(CC(N)=O)C(=O)Cn6cc(C)c(=O)[nH]c6=O)C(=O)Cn6cc(C)c(=O)[nH]c6=O)C(=O)Cn6cc(C)c(=O)[nH]c6=O)C(=O)Cn6cc(C)c(=O)[nH]c6=O)C[C@H](n6cnc7c(N)ncnc76)O5)[C@@H]4O)[C@@H]3OC)[C@@H]2O)[C@H](n2cnc3c(N)ncnc32)O[C@@H]1COP(=O)(O)O | 14 | 1 | – | –
